This is an account of results in patent US6552039B2, “Fungicidal combinations comprising a 4-phenoxyquinoline” (Syngenta Crop Protection, Inc., priority 1998, dated 2003).

Assay type in all cases: in vivo
One assay concerns Septoria spp. Kind of assay: Activity against Septoria, field trial, winter wheat cv. Consort (Example B-8). As to conditions: for % infested leaf after 84 days: winter wheat field trial, untreated control 97. On the procedure:
A field trial was carried out in Great Britain with winter wheat, cv. Consort. The experiment was arranged with 4 replicates in randomized plots each of 36 m^2. Application was carried out at 5-10% infected leaf area on the lower leaves. Cyproconazole was used as a EC240, quinoxyfen as a SC500 and the mixture cyproconazole/quinoxyfen as a SC155 formulation. Cyproconazole was applied at 80 g a.i./ha, quinoxyfen at 75 g a.i./ha and the mixture contained the same amounts of the individual active ingredients. The spray volume of all treatments was 200 l/ha. Disease assessment of Septoria spp. was estimated 84 days after application when the untrated control plants had approximated 97% infected leaf area. Results are expressed as % activity calculated on the basis of % infected leaf area.

The subject of assay [1] is Erysiphe graminis f. sp. tritici. The assay is described as follows: Efficacy against Erysiphe graminis f.sp. tritici on wheat (Example B-5), foliar spray, synergy by COLBY. The source says: A synergistic effect exists whenever the action of an active ingredient combination is greater than the sum of the actions of the individual components.
The action to be expected E for a given active ingredient combination obeys the so-called COLBY formula and can be calculated as follows (COLBY, S. R. “Calculating synergistic and antagonistic responses of herbicide combination”. Weeds, Vol. 15, pages 20-22; 1967):
According to Colby, the expected (additive) action of active ingredients I+II using p+q ppm of active ingredient is [formula]
If the action actually observed (O) is greater than the expected action (E), then the action of the combination is superadditive, i.e. there is a synergistic effect.
Five to ten wheat seeds c.v. “Arina” are sown in plastic pots of 7 cm diameter and grown for 7 to 12 days at 20° C., 50-70% rH. When the primary leaves have fully expanded, the plants are spray treated with aqueous spray liquors containing the single compounds, or mixtures thereof (hereinafter a.i.). All compounds are used as experimental or commercially available formulations, combinations are applied as tank mixtures. The application comprises foliar spraying to near runoff (three pots per treatment). 24 hours after the application or 24 hours before application, the plants are inoculated in a settling tower with fresh spores of Erysiphe graminis f. sp. tritici. The plants are then incubated in a growth chamber at 20° C., 60% rH. Seven days after the inoculation, the percentage of infection on primary leaves is evaluated. The efficacy of the a.i. is determined by comparing the degree of fungal attack on treated plants with that on untreated, similarly inoculated and incubated check plants. Each a.i. is tested at 4 to 5 concentrations. The synergie factor is calculated according to the COLBY method.

Another assay deals with Erysiphe graminis. The assay is described as follows: Field test on Erysiphe graminis, winter wheat cv. Kanzler (Example B-6). Particulars: for % infested leaf area after 29 days: winter wheat field trial, untreated control 15. As for the experimental part: A field trial was carried out in Germany with winter wheat, cv.Kanzler. The experiment was arranged with 4 replicates in randomized plots of 12.5 m^2. Cyproconazole was used as a EC240, quinoxyfen as a SC500 and the mixture cyproconazole/quinoxyfen as a SC155 formulation. Cyproconazole was applied at 80 g a.i./ha, quinoxyfen at 75 g a.i./ha and the mixture contained the same amounts of the individual active ingredients. The spray volume of all treatments was 400 l/ha. Disease assessment of Erysiphe graminis was estimated 29 days after application when untrated control plants had 15% infected leaf area. Results are expressed as % activity calculated on the basis of % infected leaf area.

The next assay has as its system Uncinula necator. The assay is described as follows: Activity against Uncinula necator on grape plants (Example B-7). As for the experimental part:
The deposit is then allowed to dry. One day later, the treated plants are inoculated by dusting freshly harvested conidia over the test plants; then the plants were incubated in a growt chamber for 10-14 days at +22° C. and 70% r.h. The efficacy of the test compounds is determined by comparing the degree of fungal attack with that on untreated, similarly inoculated check plants. I

The mark [2] stands for this setting: curative application, single a.i. 0.1 mg a.i./l.
The mark [3] stands for this setting: protective application, single a.i. 0.1 mg a.i./l.
Setting [4] is: protective application, single a.i. 0.25 mg a.i./l.
The mark [5] stands for this setting: Blumeria graminis, foliar, curative application, single a.i. 0.05 mg a.i./l, read-out: % activity observed.

Read-outs that look alike come from different tables or passages of the source.

`CC(C1CC1)C(O)(Cn1cncn1)c1ccc(Cl)cc1` (stereo not shown) [Cyproconazole]: the “% activity observed” value was determined as 42% in the assay with Septoria spp. (EC240, 80 g a.i./ha, 84 days after application); 7% in assay [1] (curative application, single a.i. 0.05 mg a.i./l); 8% in assay [1] (setting [2]); 16% in assay [1] (curative application, single a.i. 0.25 mg a.i./l); 24% in assay [1] (curative application, single a.i. 0.5 mg a.i./l); 1% in assay [1] (protective application, single a.i. 0.05 mg a.i./l). Moreover, the “% activity observed” value in assay [1] (setting [3]) is reported as 2%; in assay [1] (setting [4]), 4%; in assay [1] (protective application, single a.i. 0.5 mg a.i./l), 12%; with Erysiphe graminis (SL100, 80 g a.i./ha, 29 days after application), 60%. Moreover, the “% infested leaf after 84 days” value in the assay on Septoria spp. (EC240, 80 g a.i./ha) came to 56%. For the same compound, in the assay on Erysiphe graminis (SL100, 80 g a.i./ha), the “% infested leaf area after 29 days” value was 6%.
Turning to `Cc1cc(C2CC2)nc(Nc2ccccc2)n1` [Cyprodinil], in assay [1] (curative application, single a.i. 25 mg a.i./l), the “% activity observed” value amounted to 25%.
Consider `CCCC(Cn1cncn1)c1ccc(Cl)cc1Cl` (stereo not shown) [Penconazole], for which the figures for the “% activity observed” value in the assay on Uncinula necator (single a.i. 0.1 mg a.i./l) and in the assay with Uncinula necator (single a.i. 1 mg a.i./l) were 7% and 42%, respectively.
For `Fc1ccc(Oc2ccnc3cc(Cl)cc(Cl)c23)cc1` [Quinoxyfen], the inhibition at 75 g/ha in the assay on Septoria spp. (2016 h, SC500, 75 g a.i./ha, 84 days after application, read-out: % activity observed) turned out to be 12%; with Erysiphe graminis (Blumeria graminis, 696 h, SC500, 75 g a.i./ha, 29 days after application, read-out: % activity observed), 33%. For the same compound, the “% infested leaf after 84 days” value with Septoria spp. (SC500, 75 g a.i./ha) is reported as 85%. For the same compound, the inhibition at 0.1 µg/mL in the assay with Uncinula necator (Erysiphe necator, single a.i. 0.1 mg a.i./l, read-out: % activity observed) is 48%; in assay [1] (Blumeria graminis, foliar, curative application, single a.i. 0.1 mg a.i./l, read-out: % activity observed), 3%; in assay [1] (Blumeria graminis, foliar, protective application, single a.i. 0.1 mg a.i./l, read-out: % activity observed) it was 1%. The inhibition at 1 µg/mL in the assay with Uncinula necator (Erysiphe necator, single a.i. 1 mg a.i./l, read-out: % activity observed) was 58%; in assay [1] (Blumeria graminis, foliar, curative application, single a.i. 1 mg a.i./l, read-out: % activity observed), 7%. Besides, the inhibition at 0.05 µg/mL in assay [1] (setting [5]) came to 1%; in assay [1] (Blumeria graminis, foliar, protective application, single a.i. 0.05 mg a.i./l, read-out: % activity observed), 0%. Also, the inhibition at 0.25 µg/mL in assay [1] (Blumeria graminis, foliar, curative application, single a.i. 0.25 mg a.i./l, read-out: % activity observed) is 6%; in assay [1] (Blumeria graminis, foliar, protective application, single a.i. 0.25 mg a.i./l, read-out: % activity observed), 3%. In addition, the inhibition at 0.5 µg/mL in assay [1] (Blumeria graminis, foliar, curative application, single a.i. 0.5 mg a.i./l, read-out: % activity observed) was 4%. Moreover, the “% infested leaf area after 29 days” value with Erysiphe graminis (SC500, 75 g a.i./ha) is 10%.
Regarding `CCCC1COC(Cn2cncn2)(c2ccc(Cl)cc2Cl)O1` (stereo not shown) [Propiconazole], the “% activity observed” value in assay [1] (setting [2]) was determined as 34%; in assay [1] (setting [3]), 1%; in assay [1] (setting [4]) it was 12%.
For the compound `CC(Cc1ccc(C(C)(C)C)cc1)CN1CCCCC1` (stereo not shown) [Fenpropidin], the inhibition at 0.05 µg/mL in assay [1] (setting [5]) was found to be 0%. The inhibition at 0.5 µg/mL in assay [1] (Blumeria graminis, foliar, protective application, single a.i. 0.5 mg a.i./l, read-out: % activity observed) was found to be 2%.
